According to patent US20240174744A1, “METHODS OF TREATMENT USING PROTEIN BINDERS TO IRHOM2 EPITOPES” (SCIRHOM GMBH, priority 2021, published 2024):

System: PMA-induced release of HB-EGF from PBMCs from healthy donors
Test: ELISA-based HB-EGF release assay, PBMCs from healthy donors
Assay type: cell-based
Conditions: Homo sapiens, PBMC; recombinant murine antibodies 1 μg/ml; Batimastat 10 μM; PMA 25 ng/ml, 6 hours
Procedure: In the following study, ELISA-based HB-EGF release assays were performed to analyze the inhibitory effects of the antibodies of the present disclosure on PMA-induced release of endogenous HB-EGF from primary human material obtained from healthy donors using peripheral blood mononuclear cells (PBMCs).
In brief, on day 1, Nunc black MaxiSorp® 96-well plates (Thermo Fisher Scientific, USA) were coated overnight with 100 μl per well of mouse anti-human HB-EGF capture antibody (provided as part of the DuoSet ELISA kit) at 4 μg/ml TBS at 4° C. On day 2, the capture antibody solution was removed and MaxiSorp® plates were blocked with 300 μl per well of TBS, 1% BSA at room temperature for 3 hours. […] Using an infinite M1000 (Tecan Group, Switzerland) microplate reader, the fluorescence of each well was collected at an excitation wavelength of 435 nm and an emission wavelength of 555 nm.

## CNC(=O)[C@H](Cc1ccccc1)NC(=O)[C@H](CC(C)C)[C@H](CSc1cccs1)C(=O)NO [Batimastat]
  inhibition at 10 µM: 94.9%
